{"source": "patent US9029553B2", "about": "“2-anilino nicotinyl linked 2-amino benzothiazole conjugates and process for the preparation thereof” (Council of Scientific & Industrial Research, priority 2011, dated 2015)", "key": {"[1]": {"test_system": "502713", "test": "SRB percentage growth inhibition (NCI protocol)", "type": "cell-based", "settings": "Homo sapiens, 48 hrs exposure", "description": "(§1) 2-Anilino nicotinyl linked 2-amino benzothiazoles conjugates of formula 4-8 have been tested against ten and eleven human cancer cell lines for 10 and 1 μM respectively derived from nine cancer types (leukemia, non-small cell lung cancer, colon cancer, CNS cancer, melanoma, ovarian cancer, renal cancer, prostate cancer and breast cancer) as per NCI protocol. For each compound, percentage of growth inhibition was calculated for individual cell lines at a minimum of two concentrations (1 and 10 μM). A protocol of 48 hrs continuous drug exposure was used, and a sulforhodamine B (SRB) protein assay was used to estimate cell viability or growth. The percentage of growth inhibition compared with the control was calculated in table 1 and table 2."}, "[2]": {"test_system": "A549", "test": "SRB percentage growth inhibition (NCI protocol)", "type": "cell-based", "settings": "Homo sapiens, 48 hrs exposure", "description": "as §1"}, "[3]": {"test_system": "DU145", "test": "SRB percentage growth inhibition (NCI protocol)", "type": "cell-based", "settings": "Homo sapiens, DU-145, 48 hrs exposure", "description": "as §1"}, "[4]": {"test_system": "HCT-15", "test": "SRB percentage growth inhibition (NCI protocol)", "type": "cell-based", "settings": "Homo sapiens, 10 μM, 48 hrs exposure", "description": "as §1"}, "[5]": {"test_system": "HEP-2", "test": "SRB percentage growth inhibition (NCI protocol)", "type": "cell-based", "settings": "Homo sapiens, 48 hrs exposure", "description": "as §1"}, "[6]": {"test_system": "IGR-OV-1", "test": "SRB percentage growth inhibition (NCI protocol)", "type": "cell-based", "settings": "Homo sapiens, IGROV-1, 48 hrs exposure", "description": "as §1"}, "[7]": {"test_system": "IMR-32", "test": "SRB percentage growth inhibition (NCI protocol)", "type": "cell-based", "settings": "Homo sapiens, 48 hrs exposure", "description": "as §1"}, "[8]": {"test_system": "MCF-7", "test": "SRB percentage growth inhibition (NCI protocol)", "type": "cell-based", "settings": "Homo sapiens, MCF7, 48 hrs exposure", "description": "as §1"}, "[9]": {"test_system": "OVCAR-5", "test": "SRB percentage growth inhibition (NCI protocol)", "type": "cell-based", "settings": "Homo sapiens, 48 hrs exposure", "description": "as §1"}, "[10]": {"test_system": "PC-3", "test": "SRB percentage growth inhibition (NCI protocol)", "type": "cell-based", "settings": "Homo sapiens, 48 hrs exposure", "description": "as §1"}, "[11]": {"test_system": "SK-NS-H", "test": "SRB percentage growth inhibition (NCI protocol)", "type": "cell-based", "settings": "Homo sapiens, SK-N-SH, 48 hrs exposure", "description": "as §1"}, "[12]": {"test_system": "SiHa", "test": "SRB percentage growth inhibition (NCI protocol)", "type": "cell-based", "settings": "Homo sapiens, 48 hrs exposure", "description": "as §1"}, "[13]": {"test_system": "Sw-620", "test": "SRB percentage growth inhibition (NCI protocol)", "type": "cell-based", "settings": "Homo sapiens, 48 hrs exposure", "description": "as §1"}, "[14]": {"test_system": "HCT-15", "test": "MTT inhibition of cell proliferation", "type": "cell-based", "settings": "Homo sapiens, 48 h", "text": "(§2) In order to determine the mode of action of cell death in cancer cells, first we explored the cytotoxic potential of different structural analogs of benzothiazoles on different human cancer cell lines. […] These compounds have limited or no cytotoxicity to cervical cancer SiHa, HeLa cells, breast cancer MCF-7 cells and colon cancer HCT-15 cells."}, "[15]": {"test_system": "HL-60", "test": "MTT inhibition of cell proliferation", "type": "cell-based", "settings": "Homo sapiens, 48 h", "text": "as §2"}, "[16]": {"test_system": "Hela", "test": "MTT inhibition of cell proliferation", "type": "cell-based", "settings": "Homo sapiens, 48 h", "text": "as §2"}, "[17]": {"test_system": "MCF-7", "test": "MTT inhibition of cell proliferation", "type": "cell-based", "settings": "Homo sapiens, MCF7, 48 h", "text": "as §2"}, "[18]": {"test_system": "SiHa", "test": "MTT inhibition of cell proliferation", "type": "cell-based", "settings": "Homo sapiens, 48 h", "text": "as §2"}, "[19]": {"test_system": "HL-60 cells", "test": "Loss of mitochondrial membrane potential (Rh-123 uptake)", "type": "cell-based, human", "settings": "1 μM, 48 h", "description": "Rhodamine-123 uptake into mitochondria is driven by mitochondrial Transmembrane potential (Ψmt) that allows the determination of cell population with active integrated mitochondrial functions. Loss of Ψmt leads to depolarization of mitochondrial membranes leading to collapse of mitochondrial functions ensuing cell death. The loss of Ψmt indicated the loss of mitochondrial integrity to couple electrons to energy production. HL-60 cells exposed to tested compounds for 48 h at 1 μM were analyzed for Rh-123 uptake by flow cytometry. The percentage of cells with low Rh-123 quantum fluorescence indicative of loss of Ψmt was calculated among the total acquired cell events (10,000). In the untreated control cells, more than 90% cells were functionally active with high Rh-123 signals (FIG. 9)."}, "[20]": {"test_system": "HL-60", "test": "Fluorescent microscopic (DAPI) analysis of cell death", "type": "cell-based, human", "settings": "HL-60, 1 μM, 24 h, data not shown", "description": "(§3) The mechanism of cell death was also studied in HL-60 and PC-3 cells by fluorescent microscopic studies. The PC-3 cells were treated with compd. 8 as in case of HL-60 cells. For fluorescent DAPI staining, air dried smears of cells on glass slides were fixed in absolute methanol at −20° C. for 20 min and stained with DAPI (Sigma) at 1 μg/ml at room temperature for 20 min in the dark and mounted with 90% glycerol in PBS and observed under fluorescent microscope (Olympus).\n(§4) Morphological changes of HL-60 and PC-3 cells in response to this compound 8 were observed. The untreated cells were having large sized nuclei."}, "[21]": {"test_system": "PC-3 cells", "test": "Fluorescent microscopic (DAPI) analysis of cell death", "type": "cell-based, human", "settings": "PC-3, 1 μM, 24 h", "description": "as §3, §4"}, "[22]": {"test_system": "Ehrlich Ascites Carcinoma (EAC)", "test": "In vivo anticancer activity, Ehrlich ascites carcinoma", "design": "species or system Swiss mice", "settings": "for No. of deaths / toxicity to animals: EAC mice", "description": "Model: Ehrlich Ascites Carcinoma (EAC)\nEhrlich ascites carcinoma (EAC) cells were collected from the peritoneal cavity of the swiss mice harbouring 8-10 days old ascitic tumor. 1×10^7 EAC cells were injected intraperitoneally in Swiss mice selected for the experiment on day 0. The next day, animals were randomized and divided into different groups. The treatment groups contained 7 animals each and control group contained 10 animals. Treatment groups were treated with different doses of test substances intraperitoneally from day 1-9. One of the treatment group received 5-fluorouracil (20 mg/kg, i.p) and it served as positive control. The tumor bearing control group was similarly administered normal saline (0.2 ml, i.p.). On day 12, animals were sacrificed and ascitic fluid was collected from peritoneal cavity of each mouse for the evaluation of tumor growth. Percent tumor growth inhibition was calculated based on the total number of tumor cells present in the peritoneal cavity as on day 12 of the experiment using the following formula."}}, "note": "“Also recorded” adds a separate entry of the source."}
{"molecule": "O=C(Nc1nc2ccc([N+](=O)[O-])cc2s1)c1cccnc1Nc1cc(F)c(F)c(F)c1", "note": "[Compound 8, N3-(6-nitro-1,3-benzothiazol-2-yl)-2-[(3,4,5-trifluorophenyl)amino]-3-pyridine carboxamide]", "values": [{"measurement": "inhibition at 10 µM", "setting": "[1]", "value": 80, "unit": "%"}, {"measurement": "inhibition at 1 µM", "setting": "[2]; 1 μM", "value": 27, "unit": "%"}, {"measurement": "inhibition at 10 µM", "setting": "[2]; 10 μM", "value": 27, "unit": "%"}, {"measurement": "inhibition at 1 µM", "setting": "[3]; 1 μM", "value": 58, "unit": "%"}, {"measurement": "inhibition at 10 µM", "setting": "[3]; 10 μM", "value": 39, "unit": "%"}, {"measurement": "inhibition at 10 µM", "setting": "[4]", "value": 62, "unit": "%"}, {"measurement": "inhibition at 1 µM", "setting": "[5]; 1 μM", "value": 49, "unit": "%"}, {"measurement": "inhibition at 10 µM", "setting": "[5]; 10 μM", "value": 0, "unit": "%"}, {"measurement": "inhibition at 1 µM", "setting": "[6]", "value": 42, "unit": "%"}, {"measurement": "inhibition at 1 µM", "setting": "[7]; 1 μM", "value": 48, "unit": "%"}, {"measurement": "inhibition at 10 µM", "setting": "[7]; 10 μM", "value": 72, "unit": "%"}, {"measurement": "inhibition at 1 µM", "setting": "[8]", "value": 46, "unit": "%"}, {"measurement": "inhibition at 1 µM", "setting": "[9]; 1 μM", "value": 37, "unit": "%"}, {"measurement": "inhibition at 10 µM", "setting": "[9]; 10 μM", "value": 52, "unit": "%"}, {"measurement": "inhibition at 1 µM", "setting": "[10]", "value": 41, "unit": "%"}, {"measurement": "inhibition at 10 µM", "setting": "[11]", "value": 49, "unit": "%"}, {"measurement": "inhibition at 10 µM", "setting": "[12]", "value": 70, "unit": "%"}, {"measurement": "inhibition at 1 µM", "setting": "[13]; 1 μM", "value": 29, "unit": "%"}, {"measurement": "inhibition at 10 µM", "setting": "[13]; 10 μM", "value": 70, "unit": "%"}, {"measurement": "IC50", "setting": "[14]", "value": "> 100", "unit": "µM"}, {"measurement": "IC50", "setting": "[15]", "value": 0.08, "unit": "µM"}, {"measurement": "IC50", "setting": "[16]", "value": "> 100", "unit": "µM"}, {"measurement": "IC50", "setting": "[17]", "value": "> 100", "unit": "µM"}, {"measurement": "IC50", "setting": "[18]", "value": 36, "unit": "µM"}, {"measurement": "loss of mitochondrial membrane potential", "setting": "[19]", "value": 45, "unit": "%"}, {"measurement": "nuclear morphology (DAPI)", "setting": "[20]", "value": "fragmentatation of nuclei due to apoptosis"}, {"measurement": "nuclear morphology (DAPI)", "setting": "[21]", "value": "fragmentatation of nuclei due to apoptosis; also recorded: condensation and fragmentation of nuclei"}, {"measurement": "Growth Inhibition (%)", "setting": "[22]; 0.1 mg/kg i.p. day 1-9, read day 12", "value": 10.98, "unit": "%"}, {"measurement": "No. of deaths / toxicity to animals", "setting": "[22]; 0.1 mg/kg i.p.", "value": "0/7"}, {"measurement": "Growth Inhibition (%)", "setting": "[22]; 0.3 mg/kg i.p. day 1-9, read day 12", "value": 53.15, "unit": "%"}, {"measurement": "No. of deaths / toxicity to animals", "setting": "[22]; 0.3 mg/kg i.p.", "value": "0/7"}, {"measurement": "Growth Inhibition (%)", "setting": "[22]; 0.4 mg/kg i.p. day 1-9, read day 12", "value": "Intolerable"}, {"measurement": "No. of deaths / toxicity to animals", "setting": "[22]; 0.4 mg/kg i.p.", "value": "deaths of all the seven animals"}, {"measurement": "No. of deaths / toxicity to animals", "setting": "[22]; 0.4 mg/kg i.p., listed as Comp 8", "value": "7/7"}, {"measurement": "Growth Inhibition (%)", "setting": "[22]; 0.5 mg/kg i.p. day 1-9, read day 12", "value": "Intolerable"}, {"measurement": "No. of deaths / toxicity to animals", "setting": "[22]; 0.5 mg/kg i.p.", "value": "7/7"}, {"measurement": "Growth Inhibition (%)", "setting": "[22]; 2 mg/Kg i.p. day 1-9, read day 12", "value": "Intolerable"}, {"measurement": "No. of deaths / toxicity to animals", "setting": "[22]; 2 mg/Kg i.p.", "value": "7/7"}, {"measurement": "Growth Inhibition (%)", "setting": "[22]; 5 mg/Kg i.p. day 1-9, read day 12", "value": "Intolerable"}, {"measurement": "No. of deaths / toxicity to animals", "setting": "[22]; 5 mg/Kg i.p.", "value": "7/7"}, {"measurement": "Growth Inhibition (%)", "setting": "[22]; 20 mg/Kg i.p. day 1-9, read day 12", "value": "Intolerable"}, {"measurement": "No. of deaths / toxicity to animals", "setting": "[22]; 20 mg/Kg i.p.", "value": "7/7"}]}
